From the supplement of paper PMC10307832

Experiments:
Assay in all cases: relative viability (nuclei count vs DMSO), 5 days (fraction); higher = more cells survive
Bortezomib + Tozasertib = compound: CC(C)C[C@H](NC(=O)[C@H](Cc1ccccc1)NC(=O)c1cnccn1)B(O)O [Bortezomib] + Cc1cc(Nc2cc(N3CCN(C)CC3)nc(Sc3ccc(NC(=O)C4CC4)cc3)n2)n[nH]1 [Tozasertib] (partner 0.1 µM)
Procedure, shortened: (§1)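 Values are medians from duplicate plates. Each reflects relative viability, defined as the nuclei count of treated wells over that of vehicle wells. Lung cancer cell lines in 1536-well plates were pin-tool dosed one day after seeding with one drug alone or with a fixed anchor-drug dose plus five library-drug doses (not always all listed) in √10 steps, then fixed, stained and imaged at 4× after 5 days.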

Bortezomib + Vorinostat = compound: CC(C)C[C@H](NC(=O)[C@H](Cc1ccccc1)NC(=O)c1cnccn1)B(O)O [Bortezomib] + O=C(CCCCCCC(=O)Nc1ccccc1)NO [Vorinostat] (partner 1 µM)
Procedure, shortened: as §1

Bortezomib + Pictilisib = compound: CC(C)C[C@H](NC(=O)[C@H](Cc1ccccc1)NC(=O)c1cnccn1)B(O)O [Bortezomib] + CS(=O)(=O)N1CCN(Cc2cc3nc(-c4cccc5[nH]ncc45)nc(N4CCOCC4)c3s2)CC1 [Pictilisib] (partner 1 µM)
Procedure, shortened: as §1

[1] = compound: CC1=CC(=NN1)NC2=CC(=NC(=N2)/C=C/C3=CC=CC=C3)N4CCN(CC4)C + CC(=O)Nc1cccc(-n2c(=O)n(C3CC3)c(=O)c3c(Nc4ccc(I)cc4F)n(C)c(=O)c(C)c32)c1 [Trametinib] (partner 0.02 µM)
Procedure, shortened: as §1

| Cell Line | relative viability (Bortezomib + Tozasertib; first compound 0.0002 µM) | relative viability (Bortezomib + Tozasertib; first compound 0.002 µM) | relative viability (Bortezomib + Tozasertib; first compound 0.006325 µM) | relative viability (Bortezomib + Tozasertib; first compound 0.02 µM) | relative viability (Bortezomib + Vorinostat; first compound 0.0002 µM) | relative viability (Bortezomib + Vorinostat; first compound 0.000632 µM) | relative viability (Bortezomib + Vorinostat; first compound 0.002 µM) | relative viability (Bortezomib + Vorinostat; first compound 0.006325 µM) | relative viability (Bortezomib + Vorinostat; first compound 0.02 µM) | relative viability (Bortezomib + Pictilisib; first compound 0.0002 µM) | relative viability (Bortezomib + Pictilisib; first compound 0.002 µM) | relative viability (Bortezomib + Pictilisib; first compound 0.006325 µM) | relative viability (Bortezomib + Pictilisib; first compound 0.02 µM) | relative viability ([1]; first compound 0.08 µM) | relative viability ([1]; first compound 0.253 µM) | relative viability ([1]; first compound 0.8 µM) | relative viability ([1]; first compound 2.53 µM) | relative viability ([1]; first compound 8 µM) | relative viability (Bortezomib + Tozasertib; first compound 0.000632 µM) | relative viability (Bortezomib + Pictilisib; first compound 0.000632 µM) |
| --- | --- | --- | --- | --- | --- | --- | --- | --- | --- | --- | --- | --- | --- | --- | --- | --- | --- | --- | --- | --- |
| NCI-H322M | 0.468 | 0.442 | 0.278 | 0.308 | 0.841 | 0.696 | 0.826 | 0.393 | 0.491 | 0.49 | 0.523 | 0.459 | 0.554 | 0.485 | 0.57 | 0.811 | 0.337 | 0.327 |  |  |
| NCI-H358 | 0.101 | 0.103 | 0.0691 | 0.0756 | 0.699 | 0.71 | 0.405 | 0.0638 | 0.0768 | 0.331 | 0.357 | 0.207 | 0.16 | 0.124 | 0.123 | 0.128 | 0.0733 | 0.0762 | 0.114 | 0.305 |
| NCI-H441 | 0.66 | 0.383 | 0.186 | 0.191 | 0.865 | 0.803 | 0.243 | 0.138 | 0.141 | 0.483 | 0.35 | 0.0918 | 0.102 | 0.434 | 0.426 | 0.42 | 0.141 | 0.0993 | 0.799 | 0.315 |
| NCI-H460 | 0.386 | 0.616 | 0.304 | 0.0187 | 0.668 | 0.678 | 0.857 | 0.0257 | 0.0172 | 0.334 | 0.435 | 0.36 | 0.346 | 0.171 | 0.0318 | 0.129 | 0.0109 | 0.0042 | 0.366 | 0.376 |
| NCI-H520 | 0.482 | 0.262 | 0.24 | 0.232 | 0.825 | 0.713 | 0.177 | 0.15 | 0.138 | 0.269 | 0.229 | 0.184 | 0.184 | 0.758 | 0.531 | 0.543 | 0.12 | 0.111 | 0.401 | 0.283 |
| NCI-H596 | 0.82 | 0.753 | 0.188 | 0.155 | 0.506 | 0.614 | 0.365 | 0.219 | 0.173 | 0.513 | 0.327 | 0.15 | 0.128 | 0.846 | 1.07 | 0.839 | 0.4 | 0.216 | 0.949 | 0.369 |
| NCI-H647 | 0.297 | 0.203 | 0.0209 | 0.0248 | 0.492 | 0.583 | 0.0536 | 0.0218 | 0.0184 | 0.331 | 0.364 | 0.0521 | 0.0347 | 0.504 | 0.282 | 0.377 | 0.109 | 0.0926 | 0.19 | 0.287 |
| NCI-H661 | 0.367 | 0.341 | 0.287 | 0.201 | 0.747 | 0.74 | 0.758 | 0.269 | 0.295 | 0.355 | 0.435 | 0.335 | 0.225 | 0.593 | 0.478 | 0.628 | 0.256 | 0.242 | 0.355 | 0.328 |
| NCI-H727 | 0.688 | 0.606 | 0.394 | 0.162 | 1.29 | 1.06 | 1.36 | 1.1 | 1.02 | 0.34 | 0.329 | 0.192 | 0.106 | 0.355 | 0.347 | 0.429 | 0.347 | 0.285 | 0.775 | 0.345 |
| NCI-H838 | 0.251 | 0.327 | 0.109 | 0.123 | 0.683 | 0.752 | 0.676 | 0.157 | 0.144 | 0.425 | 0.556 | 0.158 | 0.128 | 0.526 | 0.541 | 0.44 | 0.119 | 0.12 | 0.298 | 0.499 |
| NCI-H1355 | 0.503 | 0.584 | 0.131 | 0.122 | 0.632 | 0.657 | 0.696 | 0.416 | 0.121 | 0.376 | 0.497 | 0.202 | 0.136 | 0.457 | 0.435 | 0.415 | 0.334 | 0.151 | 0.591 | 0.396 |
| NCI-H1395 | 0.793 | 0.576 | 0.288 | 0.274 | 0.762 | 0.547 | 0.515 | 0.301 | 0.306 | 0.566 | 0.531 | 0.445 | 0.294 | 0.964 | 1.03 | 0.975 | 0.659 | 0.263 | 0.692 | 0.58 |
| NCI-H1437 | 0.405 | 0.403 | 0.114 | 0.118 | 0.782 | 0.875 | 0.555 | 0.219 | 0.172 | 0.41 | 0.434 | 0.0867 | 0.0795 | 0.532 | 0.621 | 0.577 | 0.272 | 0.223 | 0.405 | 0.512 |
| NCI-H1650 | 0.426 | 0.19 | 0.139 | 0.153 | 0.575 | 0.58 | 0.151 | 0.139 | 0.155 | 0.24 | 0.17 | 0.153 | 0.15 | 0.547 | 0.566 | 0.651 | 0.197 | 0.0762 | 0.57 | 0.488 |
| NCI-H1651 | 0.694 | 0.619 | 0.099 | 0.101 | 0.568 | 0.571 | 0.534 | 0.587 | 0.134 | 0.406 | 0.591 | 0.0909 | 0.0929 | 0.801 | 0.83 | 0.832 | 0.758 | 0.395 | 0.72 | 0.532 |
| NCI-H1666 | 0.558 | 0.51 | 0.296 | 0.261 | 1.03 | 1.04 | 1.11 | 0.539 | 0.5 | 0.451 | 0.41 | 0.198 | 0.168 | 0.834 | 0.761 | 0.875 | 0.854 | 0.563 | 0.664 | 0.518 |
| NCI-H1734 | 0.263 | 0.276 | 0.133 | 0.093 | 0.832 | 0.845 | 0.635 | 0.115 | 0.0944 | 0.483 | 0.36 | 0.224 | 0.128 | 0.628 | 0.601 | 0.56 | 0.41 | 0.121 | 0.295 | 0.301 |
| NCI-H1755 | 0.571 | 0.566 | 0.193 | 0.157 | 0.813 | 0.644 | 0.748 | 0.245 | 0.208 | 0.441 | 0.43 | 0.171 | 0.137 | 0.78 | 0.728 | 0.716 | 0.66 | 0.389 | 0.612 | 0.322 |
| NCI-H1793 | 0.316 | 0.444 | 0.252 | 0.102 | 0.689 |  | 0.682 | 0.381 | 0.125 | 0.282 | 0.297 | 0.269 | 0.18 | 0.405 | 0.402 | 0.356 | 0.167 | 0.119 | 0.299 | 0.305 |
| NCI-H1915 | 0.428 | 0.416 | 0.0502 | 0.0519 | 0.514 | 0.531 | 0.555 | 0.286 | 0.0313 | 0.808 | 1.14 | 0.685 | 0.144 | 0.299 | 0.181 | 0.285 | 0.21 | 0.106 | 0.448 | 0.941 |
| NCI-H1944 | 0.234 | 0.247 | 0.195 | 0.136 | 0.563 | 0.546 | 0.633 | 0.333 | 0.148 | 0.34 | 0.349 | 0.319 | 0.276 | 0.433 | 0.429 | 0.37 | 0.318 | 0.239 | 0.248 | 0.314 |
| NCI-H1975 | 0.676 | 0.099 | 0.0653 | 0.088 | 0.661 | 0.655 | 0.154 | 0.123 | 0.135 | 0.271 | 0.173 | 0.105 | 0.115 | 0.343 | 0.333 | 0.4 | 0.254 | 0.105 | 0.831 | 0.22 |
| NCI-H1993 | 0.595 | 0.576 | 0.454 | 0.448 | 0.894 | 0.987 | 0.605 | 0.258 | 0.266 | 0.915 | 0.804 | 0.528 | 0.625 | 0.506 | 0.541 | 0.408 | 0.616 | 0.509 | 0.635 | 0.654 |
| NCI-H2009 | 0.725 | 0.704 | 0.229 | 0.0821 | 0.745 | 0.735 | 0.703 | 0.0608 | 0.0437 | 0.602 | 0.797 | 0.0767 | 0.06 | 0.309 | 0.22 | 0.215 | 0.139 | 0.0702 | 0.807 | 0.675 |
| NCI-H2023 | 0.305 | 0.428 | 0.329 | 0.0545 | 0.813 | 0.423 | 0.618 | 0.078 | 0.0655 | 0.235 | 0.286 | 0.162 | 0.0837 | 0.522 | 0.649 | 0.449 | 0.0864 | 0.0663 | 0.356 | 0.215 |
| NCI-H2085 | 0.873 | 0.697 | 0.302 | 0.281 | 0.753 | 0.78 | 0.83 | 0.255 | 0.217 | 0.404 | 0.447 | 0.39 | 0.218 | 0.594 | 0.48 | 0.535 | 0.261 | 0.214 | 0.872 | 0.465 |
